{"source": "patent US20090047259A1", "about": "“Methods of Using the Calcineurin A Variant CnA-beta 1” (priority 2005, published 2009)", "origin": "cited, not measured here", "tested_on": "calcineurin", "settings": "mdx mice"}
{"smiles": "CC(=O)OCC(=O)[C@@]12N=C(C)O[C@@H]1C[C@H]1[C@@H]3CCC4=CC(=O)C=C[C@]4(C)[C@H]3[C@@H](O)C[C@@]12C", "note": "[deflazacort]", "values": [{"measurement": "NFAT-dependent genes, including utrophin", "result": "induced"}, {"measurement": "calcineurin activity", "result": "activated calcineurin"}, {"measurement": "myocyte viability", "result": "restored myocyte viability"}]}
